The test system of this experiment is CEM cells HIV-1 protection, formazan growth assay. As to the kind of experiment: NCI AIDS Antiviral Assay. As to conditions: for IC50: measured here: growth of uninfected CEM cells. The essentials:
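Protection of CEM cells against HIV-1 was scored from cell growth (soluble formazan) across five concentrations, with parallel uninfected cells. Lack of protection may reflect toxicity.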

Molecules are shown by their SMILES. Activity calls are given as the source filed them.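 Rule for the calls: active = compounds giving half or more protection of infected cells from virus-caused growth loss, again on retest; inactive = the rest.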 Bounds are passed on as bounds.

In the case of `O=[N+]([O-])C(C(Cl)=C(Cl)Cl)=C(N1CCOCC1)N1CCOCC1`, the EC50 is above 200 µM and the IC50 is 123 µM.
As for `CC(C)c1cccc2sc(NC(=O)C(=O)C(C#N)c3cccc4ccccc34)nc12` (stereo not drawn), the result was inactive.
As for `CCCCCCCCCCCCCCCCCCCCCCCCCCCCCC=C(c1cc(Cl)c(O)c(C(=O)O)c1)c1cc(Cl)c(O)c(C(=O)O)c1`, the EC50 is 12.3 µM and the IC50 turned out to be 224 µM.
As to `NC(N)=NN=C(c1ccccc1)c1ccccc1`, the EC50 was above 200 µM and the IC50 was 1.02 µM.
For `O=C1c2scc(-c3ccc(F)cc3)c2-n2cccc21`, the EC50 was above 200 µM and the IC50 was 30.2 µM.
As to `CCn1c2ccc(C(=O)CCCN3CCCCC3)cc2c2cc(C(=O)CCCN3CCCCC3)ccc21`, the EC50 was above 43.7 µM and the IC50 worked out at 0.229 µM.
For `NCC(=O)NC1OC(COP(=O)(O)O)C(O)C1O` (stereo not drawn), in that order: above 200 µM and above 200 µM.
Regarding `Cc1cccc(C(C)C)c1NC(=O)C(=O)C(C(=O)c1ccccc1F)C1OC(=O)c2ccccc21` (stereo not drawn), the EC50 was above 200 µM and the IC50 is 15.8 µM.
For `CC1(C)C2CC(O)C1(C)CC2=O` (stereo not drawn) the same measures were above 200 µM and 170 µM.
For `COC1CCC(CO)OO1` (stereo not drawn), in that order: above 200 µM and 3.09 µM.
Regarding `CCc1ccccc1N1CCN(C(=O)c2cc(OC)c(OC)c(OC)c2)CC1`, the EC50 is above 93.3 µM and the IC50 turned out to be 0.0295 µM.
In the case of `O=C1CCSC2=C1SCc1sccc12`, the outcome was inactive.
Regarding `O=C1C(CN2CCCC2)CCCC1CN1CCCC1` (stereo not drawn), the result was inactive.
Turning to `CC(NC(=O)C(CC(=O)OCc1ccccc1)NC(=O)OCc1ccccc1)c1ccccc1` (stereo not drawn), the EC50 is above 200 µM and the IC50 is above 200 µM.
Regarding `CC(C)(C)NNC(=O)/C(=C/c1ccc(Oc2ccc(Cl)c(Cl)c2)cc1)NC(=O)c1ccccc1`, the EC50 was above 5.5 µM and the IC50 was above 5.5 µM.
As for `O=C(Nc1ccc(S(=O)(=O)c2ccc(NS(=O)(=O)Cc3ccccc3[N+](=O)[O-])cc2)cc1)c1ccccc1SSc1ccccc1C(=O)Nc1ccc(S(=O)(=O)c2ccc(NS(=O)(=O)Cc3ccccc3[N+](=O)[O-])cc2)cc1`, the EC50 is 28.2 µM and the IC50 was above 200 µM.
For `CCCCCCCCCCCCCCCCCCSCC(COP(=O)(O)OP(=O)(O)O)OC(=O)CCCCCCCCCCCCCCC` (stereo not drawn), in that order: above 0.891 µM and above 0.891 µM.
As for `CN[C@@H]1C[C@H]2O[C@@](C)([C@@H]1OC)n1c3ccccc3c3c4c(c5c6ccccc6n2c5c31)C(=O)N[C@@H]4O`, the EC50 was above 38.9 µM and the IC50 was 0.0309 µM.
With `CC1=C(C(=O)NNC(=O)c2ccccc2)CC(C(=O)NNC(=O)c2ccccc2)=C(C)N1`, the EC50 is above 200 µM and the IC50 was above 200 µM.
`O=S(=O)(O)CCNC(=S)C(=S)NCCS(=O)(=O)O`: the result was inactive.
As for `N#CC12C(=O)NC(=O)C1(C#N)C1C=CC2CC1` (stereo not drawn), the EC50 is above 200 µM and the IC50 was above 200 µM.
In the case of `CCN(CC)CCCNc1ncc(C)c2c1c1ccc3c(O)cccc3c1n2C`, the EC50 is above 13.2 µM and the IC50 was determined as 0.24 µM.
For `CC(C)=CCc1ccc2[nH]c3c(c2c1)C(=O)C(=O)C(C)=C3C(O)C(C)O` (stereo not drawn), in that order: above 200 µM and 1.95 µM.
As to `CCOC(CN(C)C(=O)OCC(Cl)(Cl)Cl)OCC`, the EC50 is above 22.4 µM and the IC50 is above 22.4 µM.
Consider `CC(=O)/C(C)=N/NC(=O)c1ccccc1O`, for which the EC50 was above 4.79 µM and the IC50 is above 4.79 µM.
`CCCCCCCCCCCCCCCCOC[C@@H](COC1OC(CO)C(O)C(O)C1O)OCCCCCCCCCCCCCCCC` (stereo partly drawn): the EC50 was above 4.07 µM and the IC50 was above 4.07 µM.
With `Cc1ccc(-c2n[nH]c(CC#N)n2)cc1`, the EC50 was above 200 µM and the IC50 is above 200 µM.
`CCCCC(/C=N/Nc1ccc([N+](=O)[O-])cn1)CC` (stereo not drawn): the EC50 was above 200 µM and the IC50 was above 200 µM.
For the compound `COC(=O)[C@H]1C2c3ccccc3-c3ccccc3C2(OC(C)=O)[C@@]1(Cl)C(=O)OC` (stereo partly drawn), the EC50 was above 43.7 µM and the IC50 turned out to be 6.31 µM.
For `Cc1cc(C)c(C(=O)c2cccc(C)c2C(=O)O)c(C)c1` the same measures were above 200 µM and above 200 µM.
`COC(=O)C(=O)C(C(=O)OC)C(=O)C(=O)Nc1cc(Cl)c(Cl)cc1Cl` (stereo not drawn): the EC50 was above 17.4 µM and the IC50 was above 17.4 µM.
As for `O=C1[C@H]2ON(c3ccccc3)C(c3cccc([N+](=O)[O-])c3)[C@H]2C(=O)N1c1ccc(Cc2ccc(N3C(=O)[C@@H]4ON(c5ccccc5)C(c5cccc([N+](=O)[O-])c5)[C@@H]4C3=O)cc2)cc1` (stereo partly drawn), the EC50 is above 6.17 µM and the IC50 is above 6.17 µM.
In the case of `Nc1ccc2nc(NCc3ccc(F)cc3)cnc2c1`, the EC50 was above 933 µM and the IC50 came to 83.2 µM.
For the compound `O=c1oc2ccccc2c(O)c1C1c2ccccc2Oc2c1c(=O)oc1ccccc21` (stereo not drawn), the outcome was inactive.
Regarding `O=C(/C=C/c1ccc(O)cc1)c1cc(O)cc(O)c1`, the EC50 was above 200 µM and the IC50 worked out at 20.9 µM.
For `CO/C(N)=C(\C#N)N=Cc1ccccc1` the same measures were above 200 µM and 105 µM.
For `COc1nc(N(C)C)nc2c1n(C)c[n+]2C` the same measures were above 107 µM and 12.6 µM.
As for `Cc1ccc(-n2c(=S)[nH]c3ccc(Br)cc3c2=O)cc1`, the EC50 is above 269 µM and the IC50 came out at 89.1 µM.
For `COC(=O)c1c2c(cc3c1CC1(Cc4cc5c(c(C)c4C1)CCC5)C3)CCC2` (stereo not drawn), in that order: above 200 µM and above 200 µM.
In the case of `CCOP(=O)(OCC)C1CCCCOC1=O` (stereo not drawn), the result was inactive.
With `Cc1nn2c(=O)c([N+](=O)[O-])c(/C=C/c3ccco3)nc2s1`, the EC50 is above 200 µM and the IC50 worked out at 45.7 µM.
Consider `N#CC(C#N)=Cn1c(=S)[nH]c2ccc([N+](=O)[O-])cc21`, for which the EC50 is above 200 µM and the IC50 was 89.1 µM.
For `CC(=O)OCC1OC(n2c(Br)nc3c2c(=O)n(C)c(=O)n3C)C(OC(C)=O)C1OC(C)=O` (stereo not drawn), in that order: above 200 µM and 69.2 µM.
Regarding `O=[N+]([O-])c1ccc(OCc2nc3ccccc3[nH]2)cc1`, the EC50 is above 200 µM and the IC50 was 87.1 µM.
For `CC1=NOC2(C1)/C(=N/O)CCC/C2=N\O` (stereo not drawn), the EC50 is above 200 µM and the IC50 was above 200 µM.
With `CN1S(=O)(=O)N(C)P12(N=P(CP(=NP13(N(C)S(=O)(=O)N1C)N(C)S(=O)(=O)N3C)(c1ccccc1)c1ccccc1)(c1ccccc1)c1ccccc1)N(C)S(=O)(=O)N2C`, the EC50 was above 70.8 µM and the IC50 is above 70.8 µM.
For `COC1CC(OC2C(C)OC(OC3C(C)OC(OC4C(C)OC(O[C@H]5CC[C@@]6(C)C(=CC[C@]7(O)[C@@H]6C[C@@H](OC(=O)/C=C(\C)C(C)C)[C@@]6(C)[C@]7(O)CC[C@@]6(O)C(C)=O)C5)CC4OC)CC3OC)CC2OC)OC(C)C1O` (stereo partly drawn), the EC50 was above 200 µM and the IC50 was found to be 27.5 µM.
Turning to `NNc1ccc2cc(S(=O)(=O)O)cc(S(=O)(=O)O)c2c1`, the EC50 is above 741 µM and the IC50 stood at 331 µM.
Regarding `O=[N+]([O-])c1ccc2c(c1)-c1ccccc1S2(=O)=O`, the result was inactive.
Consider `CSc1c(C(N)=S)c(N)nn1-c1ccccc1`, for which the EC50 was above 200 µM and the IC50 is 155 µM.

One may read the EC50 as the concentration that produces a half-maximal response. A word on the IC50: it is the concentration that inhibits the measured activity by half. Low values mean greater potency in that assay, high ones weaker potency in that assay.

(Values after PubChem BioAssay AID179 (DTP/NCI, 2004).)
